The results in this text go back to patent publication US20080200475A1 (Pfizer Inc., priority 2005, published 2008).

Where “and” joins values, the source holds several entries; their conditions need not be identical. Equal values may be shown once.

The experiment concerns the target T1, Human P2Y12 (Homo sapiens, UniProt Q9H244).
T1 construct: expressed in transfected cells; host or cells: HEK cells (membrane preparation)
Put plainly: [^33P]-2MeS-ADP Binding to Recombinant Human P2Y12 Membranes (Assay 3). Particulars: for IC50 / Ki: membranes of HEK cells transfected with P2Y12, competition with ^33P 2MeS-ADP, multiple lines = multiple runs. As to the method:
3. Human P2Y12 Recombinant Cell Membrane Binding Assay with ^33P 2MeS-ADP.
The ability of a test compound to bind to the P2Y12 receptor was evaluated in a recombinant cell membrane binding assay. In this competitive binding assay, the test compound competed against a radiolabelled agonist for binding to the P2Y12 receptor, expressed on the cell membrane. Inhibition of binding of the labeled material was measured and correlated to the amount and potency of the test compound. Data from this assay are presented in Table F. This binding assay is a modification of the procedure in Takasaki, J. et. al, Mol. Pharmacol., 2001, Vol. 60, pg. 432.
HEK cells were transfected with the pDONR201P2Y12 vector and cultured in MEM with GlutaMAX I, Earle's salts, 25 mM HEPES (Gibco #42360-032) containing 10% dialyzed FBS (Gibco #26400-044), 100 μM nonessential amino acids (Gibco #11140-050), 1 mM sodium pyruvate (Gibco #11360-070), 0.05% geneticin (Gibco #10131-027), 3 μg/mL blasticidin (Fluka brand from Sigma #15205), and 0.5 μg/mL puromycin (Sigma #P-8833).
Confluent cells were washed once with cold DPBS (Gibco #14190-136). Fresh DPBS was added and the cells were scraped and centrifuged at 500×g for 5 minutes at 4° C. The cell pellets were resuspended in TEE buffer (25 mM Tris, 5 mM EDTA, 5 mM EGTA) containing 1 protease inhibitor cocktail tablet (Roche #1 873 580) per 50 mL (called TEE+Complete) and can be flash frozen at this point.
In one embodiment, frozen cell pellets were used to prepare the membranes. In that embodiment, the frozen cell pellets were thawed on ice. In another embodiment, cell pellets may be used without flash freezing before moving on to the next step.
Cell pellets were resuspended in TEE buffer+Complete and homogenized in a glass dounce for 12 strokes. The cell suspension was centrifuged at 500×g for 5 minutes at 4° C. The supernatant was saved and centrifuged at 20,000×g for 20 minutes at 4° C. This supernatant was discarded and the cell pellet resuspended in TEE buffer+Complete and homogenized in a glass dounce for 12 strokes. This suspension was centrifuged at 20,000×g for 20 minutes at 4° C. and the supernatant discarded. The pellet was resuspended in assay buffer (50 mM Tris, 100 mM NaCl, 1 mM EDTA) containing one protease inhibitor cocktail tablet per 50 mL, and can be flash frozen as 1 mL aliquots at this point.
[…] A 1 mM DMSO intermediate stock was made in a dilution plate and from this the seven dilutions were made to 5× the final concentration in assay buffer containing 0.02% BSA.
To a polypropylene assay plate (Costar #3365) the following were added: a) 30 μL of assay buffer containing one protease inhibitor cocktail tablet per 50 mL; b) 30 μL of 1 nM ^33P 2MeS-ADP made in assay buffer containing 0.02% BSA and 12.5 mg/mL ascorbic acid; 30 μL of cold 1.5 μM 2MeS-ADP for the positive control wells, or assay buffer containing 0.02% BSA and 12.5 mg/mL ascorbic acid for the negative control wells, or 5× drug dilution; and 60 μL of 1 ug/well membranes.
The plates were incubated at room temperature for 1 hour. The reaction was stopped using a cell harvester to transfer the reaction mixture onto GF/B UniFilter plates (Perkin Elmer #6005177), and washed three times with wash buffer (50 mM Tris), filtering between each wash. The filter plates were dried for approximately 20 minutes in an oven at 50° C. Back seals were adhered to the filter plates and 25 uL of Microscint 20 scintillation fluid (Perkin Elmer #6013621) were added. The filter plates were sealed, shaken for 30 minutes, and counted on a Top Count. Data were analyzed using a four-parameter curve fit with a fixed minimum and maximum experimentally defined as the average positive and negative controls on each plate, and with a hill slope equal to one. […]

The mark [1] stands for this setting: highest concentration tested 10 μM.

T1 sequence (Q9H244 whole entry): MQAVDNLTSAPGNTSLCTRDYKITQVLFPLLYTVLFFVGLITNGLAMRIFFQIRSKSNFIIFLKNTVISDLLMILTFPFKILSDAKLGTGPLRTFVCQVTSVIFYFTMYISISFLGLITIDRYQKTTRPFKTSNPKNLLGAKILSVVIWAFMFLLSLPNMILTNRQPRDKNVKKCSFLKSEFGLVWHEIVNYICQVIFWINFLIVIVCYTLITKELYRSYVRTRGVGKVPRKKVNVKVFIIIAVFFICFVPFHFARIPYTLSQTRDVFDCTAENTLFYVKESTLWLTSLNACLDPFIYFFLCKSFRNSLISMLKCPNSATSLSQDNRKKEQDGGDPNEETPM

On to `CCOC(=O)CNC(=O)Nc1nc(N2CCN(C(=O)c3ccc(-c4ccccc4)cc3)CC2)c2cc(CC)sc2n1` [Example 15, Ethyl N-[({4-[4-(1,1′-biphenyl-4-ylcarbonyl)piperazin-1-yl]-6-ethylthieno[2,3-d]pyrimidin-2-yl}amino)carbonyl]glycinate], for which the IC50 amounted to 0.066 µM and the Ki is 0.038 µM. Further, the inhibition at 10 µM under setting [1] amounted to 94.5%.
For the molecule `C=C(C)C(=O)OCCNC(=O)Nc1nc(N2CCN(C(=O)c3ccc(-c4ccccc4)cc3)CC2)c2cc(CC)sc2n1` [Example 16, 2-{[({4-[4-(1,1′-Biphenyl-4-ylcarbonyl)piperazin-1-yl]-6-ethylthieno[2,3-d]pyrimidin-2-yl}amino)carbonyl]amino}ethyl 2-methylacrylate], the half-maximal inhibitory concentration (IC50) worked out at 0.244 µM and the inhibition constant Ki was 0.14 µM. Besides, the inhibition at 10 µM under setting [1] is 80.8%.
On the same counts, the results for `CCOC(=O)CCNC(=O)Nc1nc(N2CCN(C(=O)c3ccc(-c4ccccc4)cc3)CC2)c2cc(CC)sc2n1` [Example 17, ethyl N-[({4-[4-(1,1′-biphenyl-4-ylcarbonyl)piperazin-1-yl]-6-ethylthieno[2,3-d]pyrimidin-2-yl}amino)carbonyl]-beta-alaninate] are 0.157 µM, 0.09 µM and 89.9%.
On the same counts, the results for `CCc1cc2c(N3CCN(C(=O)c4ccc(-c5ccccc5)cc4)CC3)nc(NC(=O)NCC(=O)O)nc2s1` [Example 18, N-[({4-[4-(1,1′-Biphenyl-4-ylcarbonyl)piperazin-1-yl]-6-ethylthieno[2,3-d]pyrimidin-2-yl}amino)carbonyl]glycine] are 0.0043 µM, 0.002 µM and 95.4%.
In the same order, the values of `CCc1cc2c(N3CCN(C(=O)c4ccc(-c5ccccc5)cc4)CC3)nc(NC(=O)NCCC(=O)O)nc2s1` [Example 19, N-[({4-[4-(1,1′-Biphenyl-4-ylcarbonyl)piperazin-1-yl]-6-ethylthieno[2,3-d]pyrimidin-2-yl}amino)carbonyl]-beta-alanine] are 0.006 µM, 0.003 µM and 88%.
Turning to `CCc1cc2c(N3CCN(C(=O)c4ccc(-c5ccccc5)cc4)CC3)nc(NC(=O)NCCCO)nc2s1` [Example 20, N-{4-[4-(1,1′-Biphenyl-4-ylcarbonyl)piperazin-1-yl]-6-ethylthieno[2,3-d]pyrimidin-2-yl}-N′-(3-hydroxypropyl)urea], the IC50 worked out at 0.072 µM and the Ki worked out at 0.047 µM. Also, the inhibition at 10 µM under setting [1] was found to be 89%.
As to `CCc1cc2c(N3CCN(C(=O)c4ccc(-c5ccccc5)cc4)CC3)nc(NC(=O)COC)nc2s1` [Example 23, N-{4-[4-(Biphenyl-4-carbonyl)piperazin-1-yl]-6-ethylthieno[2,3-d]pyrimidin-2-yl}-2-methoxyacetamide], the IC50 is 0.0624 µM and the inhibitory constant (Ki) is 0.036 µM. The inhibition at 10 µM under setting [1] came out at 93.2%.
On the same counts, the results for `CCc1cc2c(N3CCN(C(=O)c4ccc(-c5ccccc5)cc4)CC3)nc(NC(=O)C(C)C)nc2s1` [Example 24] are 0.163 µM, 0.089 µM and 90%.
In the same order, the values of `CCc1cc2c(N3CCN(C(=O)c4ccc(-c5ccccc5)cc4)CC3)nc(NC(C)=O)nc2s1` [Example 25, N-{4-[4-(Biphenyl-4-carbonyl)piperazin-1-yl]-6-ethylthieno[2,3-d]pyrimidin-2-yl}acetamide] are 0.159 µM, 0.093 µM and 91%.
In the same order, the values of `CCc1cc2c(N3CCN(C(=O)c4ccc(-c5ccccc5)cc4)CC3)nc(NC(=O)COCc3ccccc3)nc2s1` [Example 27, 2-Benzyloxy-N-{4-[4-(biphenyl-4-carbonyl)piperazin-1-yl]-6-ethylthieno[2,3-d]pyrimidin-2-yl}acetamide] are 0.204 µM, 0.119 µM and 84%.
As for `CCc1cc2c(N3CCN(C(=O)c4ccc(-c5ccccc5)cc4)CC3)nc(NC(=O)CCNC(=O)OCc3ccccc3)nc2s1` [Example 28, Benzyl(2-{4-[4-(biphenyl-4-carbonyl)piperazin-1-yl]-6-ethylthieno[2,3-d]pyrimidin-2-ylcarbamoyl}ethyl)carbamate], the IC50 was found to be 0.0381 µM and the Ki was found to be 0.021 µM. The inhibition at 10 µM under setting [1] is 92.7%.
With `CCc1cc2c(N3CCN(C(=O)c4ccc(-c5ccccc5)cc4)CC3)nc(NC(=O)c3cccnc3)nc2s1` [Example 29, N-{4-[4-(Biphenyl-4-carbonyl)piperazin-1-yl]-6-ethylthieno[2,3-d]pyrimidin-2-yl}nicotinamide], the IC50 was 0.078 µM and the Ki is 0.043 µM. Also, the inhibition at 10 µM under setting [1] is 89%.
As for `CCc1cc2c(N3CCN(C(=O)c4ccc(-c5ccccc5)cc4)CC3)nc(NC(=O)C3OC(OC)[C@@H]4OC(C)(C)O[C@H]34)nc2s1` (stereo partly drawn) [Example 31, (7R,8S)-6-Methoxy-2,2-dimethyltetrahydrofuro[3,4-d][1,3]dioxole-4-carboxylic acid{4-[4-(biphenyl-4-carbonyl)piperazin-1-yl]-6-ethylthieno[2,3-d]pyrimidin-2-yl}amide], the IC50 was 0.345 µM and 0.678 µM; the Ki is 0.189 µM and 0.329 µM. Moreover, under setting [1], the “% Inhibition, [^33P]-2MeS-ADP Binding to Recombinant Human P2Y12 Membranes (Assay 3)” value was determined as 72.4% and the inhibition at 10 µM came out at 76.7%.
For the molecule `CCc1cc2c(N3CCN(C(=O)c4ccc(-c5ccccc5)cc4)CC3)nc(NC(=O)c3ccccn3)nc2s1` [Example 33, {4-[4-(Biphenyl-4-carbonyl)piperazin-1-yl]-6-ethylthieno[2,3-d]pyrimidin-2-yl}picolinamide], the IC50 stood at 0.0389 µM and the Ki is 0.021 µM. Under setting [1], the inhibition at 10 µM amounted to 87.9%.
In the same order, the values of `CCc1cc2c(N3CCN(C(=O)c4ccc(-c5ccccc5)cc4)CC3)nc(NC(=O)c3ccncc3)nc2s1` [Example 34, {4-[4-(Biphenyl-4-carbonyl)piperazin-1-yl]-6-ethylthieno[2,3-d]pyrimidin-2-yl}isonicotinamide] are 0.582 µM, 0.328 µM and 74.8%.
With `CCc1cc2c(N3CCN(C(=O)c4ccc(-c5ccccc5)cc4)CC3)nc(NC(=O)[C@H](COC(C)(C)C)NC(=O)OCc3ccccc3)nc2s1` [Example 35, Benzyl (1-{4-[4-(biphenyl-4-carbonyl)piperazin-1-yl]-6-ethylthieno[2,3-d]pyrimidin-2-ylcarbamoyl)-2-tert-butoxyethyl)carbamate], the IC50 turned out to be 2.7 µM and the Ki worked out at 1.31 µM. Moreover, the inhibition at 10 µM under setting [1] was 53.9%.
With `CCc1cc2c(N3CCN(C(=O)c4ccc(-c5ccccc5)cc4)CC3)nc(NC(=O)CCO)nc2s1` [Example 36, N-{4-[4-(Biphenyl-4-carbonyl)piperazin-1-yl]-6-ethylthieno[2,3-d]pyrimidin-2-yl}-3-hydroxypropionamide], the IC50 was 0.067 µM and the Ki turned out to be 0.037 µM. In addition, the inhibition at 10 µM under setting [1] is 94%.
Regarding `CCc1cc2c(N3CCN(C(=O)c4ccc(-c5ccccc5)cc4)CC3)nc(NC(=O)CO)nc2s1` [Example 37, N-{4-[4-(Biphenyl-4-carbonyl)piperazin-1-yl]-6-ethylthieno[2,3-d]pyrimidin-2-yl}-b-hydroxyacetamide], the concentration for half-maximal inhibition (IC50) was 0.0493 µM and the Ki turned out to be 0.024 µM. Besides, where the note is “highest concentration tested 1 μM”, the inhibition at 1 µM came to 84.5%.
